Measurements as given in patent US10946012B2, “Methods for inducing tumor regression, inhibiting tumor growth, and inducing apoptosis in breast tumors with geranylgeranyltransferase I inhibitors” (H. Lee Moffitt Cancer Center and Research Institute, Inc., priority 2009, dated 2021).

Legend:
Rap1 geranylgeranylation = Rap1 geranylgeranylation in H-Ras transformed NIH 3T3 cells (Western blot); assay type: cell-based, murine; settings: H-Ras/3T3 cells
Protocol: (§1) Human MDA-MB-468 and MDA-MB-231 breast cancer cells and murine NIH 3T3 cells were obtained from the ATCC and cultured in DMEM medium. Human SK-Br3 and BT-474 breast cancer cells (ATCC) were cultured in McCoy's 5a medium and Hybri-Care medium, respectively. Mouse embryonic fibroblast (MEF) cells from p27 wild-type and p27 null mice were grown in DMEM. All media were supplemented with 10% fetal calf serum, 10 units/ml penicillin, and 10 μg/ml streptomycin. Subconfluent cells were treated with different concentrations of GGTI, FTI or DMSO vehicle for specific time periods. After treatment, cells were harvested by trypsinization.
To prepare whole cell lysates, cells were trypsinized, washed with phosphate buffered saline (PBS) twice, and lysed in 30 mM Hepes, pH 7.5, 10 mM NaCl, 5 mM MgCl2, 25 mM NaF, 1 mM EGTA, 1% Triton-X-100, 10% glycerol, protease inhibitor cocktail, 2 mM PMSF, 2 mM Na3VO4, and 6.4 mg/ml p-nitrophenylphosphate. Lysates were cleared by centrifugation at 12,000×g for 15 min, and the supernatants were collected as whole cell extracts. The protein concentration was determined by the Bradford assay. […] Select bands were quantified using AlphaEaseFC densitometry software (AlphaInnotech, San Leandro, Calif.). […]

[1] = test system: MDA-MB-231 breast cancer tumors; assay: Anti-tumor activity in the nude mouse tumor xenograft model; assay type: in vivo, nude mice; settings: 100 mg/kg daily i.p.
Protocol: Nude mice (nu/nu, Charles River, Wilmington, Mass.) were maintained in accordance with the Institutional Animal Care and Use Committee (IACUC) procedures and guidelines. MDA-MB-231 cells were harvested via trypsinization, pelleted at 805×g for 5 min, and re-suspended in a 50:50 mixture of sterile PBS and Matrigel (BD Biosciences) at 10×10^6 cells per 100 μl. A volume of 100 μl (˜10×10^6 cells) was injected orthotopically into the upper mammary fat pads of nude mice. The tumor xenografts were monitored by electronic caliper measurements and tumor volume (V) was calculated using the formula V=W^2L/2, where width (W) is […]. When the tumors reached ˜100 mm^3, the animals were randomized and injected intraperiteoneally daily with vehicle (70% DMSO), or 100 mg/kg GGTI-2417 or GGTI-2418, or every third day with GGTI-2418 (200 mg/kg. Tumors were measured every third day for 12-18 days.

[2] = test system: MDA-MB-468 breast cancer cells; assay: Cell cycle analysis in MDA-MB-468 cells; assay type: cell-based, human; settings: 50 μM, control 51%
Protocol: Cell cycle analysis based on DNA content was performed as described previously. Liang, J., et al., PKB/Akt phosphorylates p27, impairs nuclear import of p27 and opposes p27-mediated G1 arrest, Nat Med 8:1153-60 (2002). At each time point, cells were harvested, counted, and washed twice with PBS. Cells (2-3×10^6) were suspended in 0.5 ml PBS, fixed in 5 ml of 70% ethanol overnight at −20° C., centrifuged, re-suspended again in 1 ml of propidium iodide staining solution (50 μg/ml propidium iodide, 100 units/ml RNase A and 1 mg/ml of glucose in PBS), and incubated at room temperature for 30 min. The cells were then analyzed for cell cycle distribution using FACScan (BD Biosciences) and ModFit LT cell cycle analysis software (Verity Software, Topsham, Me.).

p27 null MEFs = assay: Trypan Blue exclusion assay in p27 null MEFs; assay type: cell-based, mouse; settings: 50 μM, 72 h
Protocol: as §1
Adherent cells were harvested by trypsinization and diluted with 0.4% Trypan Blue dye and counted on a hemacytometer. Cells excluding the dye were scored as live cells, whereas cells absorbing the dye were scored as dead cells. Cell proliferation was determined by dividing the number of live cells in the treated sample by the number of live cells in the control, and the degree of cell death was expressed as percentage of dead cells of the total cell number.

COC(=O)[C@H](CC(C)C)NC(=O)N1CCN(Cc2nc[nH]c2C)C(=O)[C@@H]1Cc1ccccc1 [GGTI-2417]
selectivity for inhibition of cellular GGTase I compared to FTase (Rap1 geranylgeranylation): > 125 fold
IC50 (Rap1 geranylgeranylation; 48 h, read-out: IC50, inhibition of Rap1 geranylgeranylation): 400 ± 100 nM
tumor growth inhibition [1]: 76%
fraction of cells in G0/G1 [2]: 78%
inhibition of proliferation (p27 null MEFs; MEFs lacking p27): 61.6±8.1%
cell death (p27 null MEFs; p27 null MEFs, basal 27.5±2.1%): did not increase the number of dead cells
